# Source: ChEMBL document CHEMBL1152560, “Substituted 2-arylbenzothiazoles as kinase inhibitors: hit-to-lead optimization” (Bioorg Med Chem, 2009)
# Columns and labels:
# [1] = target: T1, Serine/threonine-protein kinase DCLK2 (Homo sapiens) (UniProt Q8N568); experiment: Residual activity of DCAMKL2 at 0.1 uM by microplate scintillation counting
# T1 sequence (whole entry): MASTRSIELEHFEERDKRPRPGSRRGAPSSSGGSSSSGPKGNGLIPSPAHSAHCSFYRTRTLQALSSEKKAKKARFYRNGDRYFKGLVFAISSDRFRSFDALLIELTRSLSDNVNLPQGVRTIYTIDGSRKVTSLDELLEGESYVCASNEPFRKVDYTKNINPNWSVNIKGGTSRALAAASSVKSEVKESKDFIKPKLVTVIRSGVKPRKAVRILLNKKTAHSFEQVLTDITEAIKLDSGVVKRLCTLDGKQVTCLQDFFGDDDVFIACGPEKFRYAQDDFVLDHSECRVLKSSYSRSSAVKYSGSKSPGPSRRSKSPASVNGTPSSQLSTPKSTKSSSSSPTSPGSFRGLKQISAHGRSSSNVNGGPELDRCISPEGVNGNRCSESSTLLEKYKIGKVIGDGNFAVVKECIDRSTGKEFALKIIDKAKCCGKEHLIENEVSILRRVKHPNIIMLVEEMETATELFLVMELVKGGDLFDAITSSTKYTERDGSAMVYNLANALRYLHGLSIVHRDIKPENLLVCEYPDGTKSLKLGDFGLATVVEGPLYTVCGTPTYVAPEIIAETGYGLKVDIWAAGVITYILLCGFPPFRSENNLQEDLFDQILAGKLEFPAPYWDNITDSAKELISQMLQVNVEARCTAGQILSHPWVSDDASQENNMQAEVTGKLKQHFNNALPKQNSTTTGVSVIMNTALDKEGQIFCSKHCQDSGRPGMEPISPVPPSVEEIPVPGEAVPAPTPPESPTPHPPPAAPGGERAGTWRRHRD
# [2] = target: Serine/threonine-protein kinase PAK 3 (Homo sapiens) (UniProt O75914); experiment: Residual activity of PAK3 at 0.1 uM by microplate scintillation counting
# [3] = target: Interleukin-1 receptor-associated kinase 1 (Homo sapiens) (UniProt P51617); experiment: Residual activity of IRAKI at 10 uM by microplate scintillation counting
# [4] = target: T2, Serine/threonine-protein kinase 4 (Homo sapiens) (UniProt Q13043); experiment: Residual activity of MST1 at 1 uM by microplate scintillation counting
# T2 sequence (whole entry): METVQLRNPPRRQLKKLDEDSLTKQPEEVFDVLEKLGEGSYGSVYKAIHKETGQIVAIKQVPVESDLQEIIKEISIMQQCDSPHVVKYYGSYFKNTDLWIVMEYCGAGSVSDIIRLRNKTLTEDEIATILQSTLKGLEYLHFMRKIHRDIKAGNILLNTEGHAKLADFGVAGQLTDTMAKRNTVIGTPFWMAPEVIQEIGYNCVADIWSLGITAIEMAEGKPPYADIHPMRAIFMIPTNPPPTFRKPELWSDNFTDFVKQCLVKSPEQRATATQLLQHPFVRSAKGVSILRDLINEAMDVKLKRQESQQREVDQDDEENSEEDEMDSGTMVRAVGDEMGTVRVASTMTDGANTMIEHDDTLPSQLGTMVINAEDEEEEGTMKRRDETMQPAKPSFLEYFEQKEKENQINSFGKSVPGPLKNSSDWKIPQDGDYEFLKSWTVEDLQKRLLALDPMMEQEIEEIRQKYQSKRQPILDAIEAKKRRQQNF
# [5] = target: Mast/stem cell growth factor receptor Kit (Homo sapiens) (UniProt P10721); experiment: Residual activity of wild type KIT at 0.1 uM by microplate scintillation counting
# [6] = Residual activity of S6K at 10 uM by microplate scintillation counting
# [7] = target: T3, cGMP-dependent protein kinase 2 (Homo sapiens) (UniProt Q13237); experiment: Residual activity of PRKG2 at 0.1 uM by microplate scintillation counting
# T3 sequence (whole entry): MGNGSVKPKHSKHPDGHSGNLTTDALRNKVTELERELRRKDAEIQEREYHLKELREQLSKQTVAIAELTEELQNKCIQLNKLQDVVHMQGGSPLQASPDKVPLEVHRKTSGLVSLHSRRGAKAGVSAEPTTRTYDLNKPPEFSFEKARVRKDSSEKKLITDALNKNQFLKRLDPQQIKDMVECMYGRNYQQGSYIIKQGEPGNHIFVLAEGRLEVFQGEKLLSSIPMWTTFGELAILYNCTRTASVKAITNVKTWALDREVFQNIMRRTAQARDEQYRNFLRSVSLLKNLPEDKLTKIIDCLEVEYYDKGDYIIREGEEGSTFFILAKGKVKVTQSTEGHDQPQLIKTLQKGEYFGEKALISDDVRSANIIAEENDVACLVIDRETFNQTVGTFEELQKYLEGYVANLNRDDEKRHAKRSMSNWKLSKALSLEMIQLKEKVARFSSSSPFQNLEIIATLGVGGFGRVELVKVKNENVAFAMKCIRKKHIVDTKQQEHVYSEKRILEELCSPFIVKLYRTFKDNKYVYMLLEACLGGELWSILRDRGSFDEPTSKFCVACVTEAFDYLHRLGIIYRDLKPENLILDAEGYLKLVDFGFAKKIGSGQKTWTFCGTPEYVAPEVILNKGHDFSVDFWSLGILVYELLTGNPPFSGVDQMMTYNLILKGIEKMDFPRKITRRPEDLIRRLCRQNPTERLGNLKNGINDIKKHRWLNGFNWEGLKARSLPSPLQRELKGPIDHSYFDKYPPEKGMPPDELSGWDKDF
# [8] = target: Calcium/calmodulin-dependent protein kinase kinase 2 (Homo sapiens) (UniProt Q96RR4); experiment: Residual activity of CAMKK2 at 1 uM by microplate scintillation counting
# Calcium/calmodulin-dependent protein kinase kinase 2 (Homo sapiens), sequence (Q96RR4 2-588 limits assumed): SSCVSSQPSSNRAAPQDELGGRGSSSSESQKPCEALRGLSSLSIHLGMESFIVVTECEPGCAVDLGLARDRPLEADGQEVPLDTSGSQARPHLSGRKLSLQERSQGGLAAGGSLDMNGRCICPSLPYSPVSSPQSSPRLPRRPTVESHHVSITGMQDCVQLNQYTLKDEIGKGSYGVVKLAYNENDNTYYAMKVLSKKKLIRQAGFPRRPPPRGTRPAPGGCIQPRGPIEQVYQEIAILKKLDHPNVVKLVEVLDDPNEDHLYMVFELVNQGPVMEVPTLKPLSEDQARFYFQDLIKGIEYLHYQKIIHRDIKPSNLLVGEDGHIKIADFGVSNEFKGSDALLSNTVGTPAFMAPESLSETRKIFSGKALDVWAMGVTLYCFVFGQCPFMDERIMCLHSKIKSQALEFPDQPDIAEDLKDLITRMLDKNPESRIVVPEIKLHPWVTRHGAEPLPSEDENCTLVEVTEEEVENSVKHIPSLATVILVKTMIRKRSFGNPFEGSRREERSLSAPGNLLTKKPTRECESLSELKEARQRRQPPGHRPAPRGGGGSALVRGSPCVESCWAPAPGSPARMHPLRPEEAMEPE
# Serine/threonine-protein kinase PAK 3 (Homo sapiens), sequence (O75914 whole entry, looked up): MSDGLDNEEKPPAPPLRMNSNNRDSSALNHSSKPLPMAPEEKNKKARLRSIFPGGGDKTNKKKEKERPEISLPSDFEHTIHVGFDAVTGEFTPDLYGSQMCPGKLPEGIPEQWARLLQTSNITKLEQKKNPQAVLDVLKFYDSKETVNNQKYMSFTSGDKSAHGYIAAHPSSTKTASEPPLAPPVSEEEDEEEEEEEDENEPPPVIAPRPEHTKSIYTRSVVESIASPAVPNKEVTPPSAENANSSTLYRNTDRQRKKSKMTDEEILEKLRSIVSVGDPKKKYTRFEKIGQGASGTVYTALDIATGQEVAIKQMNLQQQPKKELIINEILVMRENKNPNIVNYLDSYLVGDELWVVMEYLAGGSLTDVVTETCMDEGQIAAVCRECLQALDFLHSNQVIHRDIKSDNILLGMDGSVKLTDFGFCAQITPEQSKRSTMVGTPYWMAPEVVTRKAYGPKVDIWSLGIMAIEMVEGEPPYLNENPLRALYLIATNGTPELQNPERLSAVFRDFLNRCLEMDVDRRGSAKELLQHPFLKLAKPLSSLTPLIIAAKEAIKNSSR
# Mast/stem cell growth factor receptor Kit (Homo sapiens), sequence (P10721 whole entry): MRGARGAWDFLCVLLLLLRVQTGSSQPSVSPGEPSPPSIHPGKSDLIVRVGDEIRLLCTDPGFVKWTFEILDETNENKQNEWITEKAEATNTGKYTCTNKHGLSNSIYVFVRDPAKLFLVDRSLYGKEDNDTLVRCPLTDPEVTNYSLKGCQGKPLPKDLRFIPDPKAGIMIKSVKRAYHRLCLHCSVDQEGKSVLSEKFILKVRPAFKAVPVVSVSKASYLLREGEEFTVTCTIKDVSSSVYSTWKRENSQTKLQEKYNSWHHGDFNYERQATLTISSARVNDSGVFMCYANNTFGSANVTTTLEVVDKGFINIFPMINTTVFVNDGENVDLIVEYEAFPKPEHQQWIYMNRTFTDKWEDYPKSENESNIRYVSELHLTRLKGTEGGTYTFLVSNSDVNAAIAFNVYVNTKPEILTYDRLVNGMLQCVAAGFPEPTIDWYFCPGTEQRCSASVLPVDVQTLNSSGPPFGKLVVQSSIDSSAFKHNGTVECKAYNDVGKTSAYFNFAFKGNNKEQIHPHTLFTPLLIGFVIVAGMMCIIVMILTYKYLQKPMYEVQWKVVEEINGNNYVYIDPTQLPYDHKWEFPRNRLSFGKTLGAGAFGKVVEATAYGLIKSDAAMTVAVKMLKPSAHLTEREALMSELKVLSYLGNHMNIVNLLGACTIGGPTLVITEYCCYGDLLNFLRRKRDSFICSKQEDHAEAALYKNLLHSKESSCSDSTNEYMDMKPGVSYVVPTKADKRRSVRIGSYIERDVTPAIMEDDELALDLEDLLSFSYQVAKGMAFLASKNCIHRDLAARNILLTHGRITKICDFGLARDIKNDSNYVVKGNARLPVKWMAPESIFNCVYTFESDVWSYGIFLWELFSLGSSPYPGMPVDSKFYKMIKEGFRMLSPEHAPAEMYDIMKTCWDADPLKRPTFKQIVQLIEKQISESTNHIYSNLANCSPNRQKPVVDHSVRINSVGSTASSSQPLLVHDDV
# Interleukin-1 receptor-associated kinase 1 (Homo sapiens), sequence (P51617 whole entry, looked up): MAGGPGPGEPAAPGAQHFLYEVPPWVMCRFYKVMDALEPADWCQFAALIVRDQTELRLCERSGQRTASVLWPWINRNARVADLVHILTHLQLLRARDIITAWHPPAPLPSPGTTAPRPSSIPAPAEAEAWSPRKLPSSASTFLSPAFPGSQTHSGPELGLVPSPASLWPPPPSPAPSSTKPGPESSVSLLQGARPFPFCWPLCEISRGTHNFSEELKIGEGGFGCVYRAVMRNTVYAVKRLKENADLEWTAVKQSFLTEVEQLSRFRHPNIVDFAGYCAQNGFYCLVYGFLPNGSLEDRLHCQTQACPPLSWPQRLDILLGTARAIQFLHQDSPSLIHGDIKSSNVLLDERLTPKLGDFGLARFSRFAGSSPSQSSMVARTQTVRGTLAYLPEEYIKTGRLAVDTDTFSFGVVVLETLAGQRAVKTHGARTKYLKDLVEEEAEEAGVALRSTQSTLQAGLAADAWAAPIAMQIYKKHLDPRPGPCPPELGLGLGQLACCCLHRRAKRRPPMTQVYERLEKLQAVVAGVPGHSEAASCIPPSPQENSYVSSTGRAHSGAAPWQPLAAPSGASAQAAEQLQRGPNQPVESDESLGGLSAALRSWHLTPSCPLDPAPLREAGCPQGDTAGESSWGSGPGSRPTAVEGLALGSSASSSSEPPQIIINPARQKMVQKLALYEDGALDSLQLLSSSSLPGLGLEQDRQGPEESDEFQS
SMILES,residual activity [1],residual activity [2],residual activity [3],residual activity [4],residual activity [5],residual activity [6],residual activity [7],residual activity [8]
COc1cc2c(Oc3ccc(-c4nc5ccccc5s4)cc3)ncnc2cc1OCCCN1CCN(C)CC1,66%,95%,23%,87%,96%,29%,87%,91%
COc1cc2c(Oc3ccc(-c4nc5ccccc5s4)cc3)ncnc2cc1OCCCN1CCCC1,87%,95%,18%,81%,101%,37%,84%,85%
COc1cc2c(Oc3ccc(-c4nc5ccccc5s4)cc3F)ncnc2cc1OCCCN1CCN(C)CC1,80%,97%,18%,101%,96%,36%,86%,90%
